Measured values from ChEMBL document CHEMBL5465560, “Selectivity Literature for EUbOPEN Chemogenomic Library” (2024).

Tests used:
[1] = target: T1, Mitogen-activated protein kinase kinase kinase 2 (Homo sapiens) (UniProt Q9Y2U5); test: Selectivity interaction (KinomeScan (DiscoverX)) EUB0000695a MAP3K2; conditions: at 100 nM
T1 sequence (whole entry): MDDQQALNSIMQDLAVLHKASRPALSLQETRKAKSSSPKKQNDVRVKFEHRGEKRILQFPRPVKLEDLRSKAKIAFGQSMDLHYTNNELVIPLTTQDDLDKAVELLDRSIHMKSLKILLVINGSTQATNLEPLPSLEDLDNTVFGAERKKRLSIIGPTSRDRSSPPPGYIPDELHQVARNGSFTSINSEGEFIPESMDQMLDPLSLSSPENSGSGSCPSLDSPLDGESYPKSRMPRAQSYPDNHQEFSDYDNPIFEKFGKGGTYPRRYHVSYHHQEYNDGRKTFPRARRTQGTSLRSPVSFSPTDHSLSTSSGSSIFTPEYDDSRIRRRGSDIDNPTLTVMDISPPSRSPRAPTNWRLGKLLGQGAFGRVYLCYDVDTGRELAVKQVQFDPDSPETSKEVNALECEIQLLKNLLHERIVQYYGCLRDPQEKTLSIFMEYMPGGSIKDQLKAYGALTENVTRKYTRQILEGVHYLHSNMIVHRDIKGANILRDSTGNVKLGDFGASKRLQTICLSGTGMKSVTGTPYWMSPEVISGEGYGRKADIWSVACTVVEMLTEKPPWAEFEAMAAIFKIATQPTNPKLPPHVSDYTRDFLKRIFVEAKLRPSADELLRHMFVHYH

[2] = target: SRSF protein kinase 2 (Homo sapiens) (UniProt P78362); test: Selectivity interaction (KinomeScan (DiscoverX)) EUB0001079a SRPK2; conditions: at 1 µM
Chain of SRSF protein kinase 2 (Homo sapiens) (P78362 whole entry, looked up): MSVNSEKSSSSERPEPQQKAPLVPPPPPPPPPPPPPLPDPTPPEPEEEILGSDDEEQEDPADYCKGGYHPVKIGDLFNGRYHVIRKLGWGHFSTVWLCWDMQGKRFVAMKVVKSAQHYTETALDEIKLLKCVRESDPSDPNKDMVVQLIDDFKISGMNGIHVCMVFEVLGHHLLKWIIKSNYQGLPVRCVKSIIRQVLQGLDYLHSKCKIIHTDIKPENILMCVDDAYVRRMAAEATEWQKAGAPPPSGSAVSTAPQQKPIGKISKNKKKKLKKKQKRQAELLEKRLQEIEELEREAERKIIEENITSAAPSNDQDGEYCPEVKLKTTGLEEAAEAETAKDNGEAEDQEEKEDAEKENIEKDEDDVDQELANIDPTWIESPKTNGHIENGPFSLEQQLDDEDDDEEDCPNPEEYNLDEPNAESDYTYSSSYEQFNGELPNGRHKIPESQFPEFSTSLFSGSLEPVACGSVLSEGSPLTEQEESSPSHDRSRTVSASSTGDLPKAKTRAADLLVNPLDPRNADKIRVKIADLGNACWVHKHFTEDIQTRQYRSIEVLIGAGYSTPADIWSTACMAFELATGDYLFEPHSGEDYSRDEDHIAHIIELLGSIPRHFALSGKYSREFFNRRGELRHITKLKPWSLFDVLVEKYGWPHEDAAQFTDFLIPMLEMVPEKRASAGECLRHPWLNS

[3] = target: T2, CDK4/Cyclin D3 (Homo sapiens) (UniProt P11802+P30281); test: (§1) Selectivity interaction (Rxn Biology Kinase assay) EUB0001632a CDK4; assay type: protein-complex assay; conditions: at 10 µM
[4] = target: T3, Cyclin-dependent kinase 4/cyclin D1 (Homo sapiens) (UniProt P11802+P24385); test: as §1; assay type: protein-complex assay; conditions: at 10 µM
[5] = target: T2, CDK4/Cyclin D3 (Homo sapiens); test: (§2) Selectivity interaction (KinomeScan (DiscoverX)) EUB0001049a CDK4; assay type: protein-complex assay; conditions: at 1 µM
[6] = target: T3, Cyclin-dependent kinase 4/cyclin D1 (Homo sapiens); test: as §2; assay type: protein-complex assay; conditions: at 1 µM
[7] = target: T4, Serine/threonine-protein kinase D1 (Homo sapiens) (UniProt Q15139); test: Selectivity interaction (SelectScreen profiling (Invitrogen)) EUB0000607a PRKD1; conditions: at 2 µM
T4 sequence (whole entry): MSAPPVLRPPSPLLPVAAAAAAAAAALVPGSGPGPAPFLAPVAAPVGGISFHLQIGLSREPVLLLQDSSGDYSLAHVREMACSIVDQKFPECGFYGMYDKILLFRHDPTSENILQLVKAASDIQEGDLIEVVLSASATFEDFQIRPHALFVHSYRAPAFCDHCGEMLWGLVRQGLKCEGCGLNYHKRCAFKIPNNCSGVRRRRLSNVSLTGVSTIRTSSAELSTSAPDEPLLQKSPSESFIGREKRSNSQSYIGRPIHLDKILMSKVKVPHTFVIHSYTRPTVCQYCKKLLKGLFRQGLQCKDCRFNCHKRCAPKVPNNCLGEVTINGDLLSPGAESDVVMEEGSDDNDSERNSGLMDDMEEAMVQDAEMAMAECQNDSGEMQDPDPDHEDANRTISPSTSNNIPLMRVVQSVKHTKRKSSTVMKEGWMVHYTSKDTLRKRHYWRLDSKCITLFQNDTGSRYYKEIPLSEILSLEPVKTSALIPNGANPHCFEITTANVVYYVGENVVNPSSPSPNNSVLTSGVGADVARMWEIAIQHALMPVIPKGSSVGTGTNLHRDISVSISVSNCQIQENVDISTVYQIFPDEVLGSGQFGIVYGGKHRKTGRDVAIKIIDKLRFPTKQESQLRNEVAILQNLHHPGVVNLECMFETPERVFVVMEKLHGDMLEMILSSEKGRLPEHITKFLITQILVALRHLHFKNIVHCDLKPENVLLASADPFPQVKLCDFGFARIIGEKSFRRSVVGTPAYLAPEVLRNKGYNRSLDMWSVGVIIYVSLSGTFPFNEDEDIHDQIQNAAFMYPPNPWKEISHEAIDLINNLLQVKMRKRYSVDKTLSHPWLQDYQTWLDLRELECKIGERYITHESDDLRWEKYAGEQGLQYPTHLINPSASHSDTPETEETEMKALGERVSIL

[8] = target: T5, Serine/threonine-protein kinase TAO2 (Homo sapiens) (UniProt Q9UL54); test: Selectivity interaction (KinomeScan (DiscoverX)) EUB0000618a TAOK2; conditions: at 10 µM
T5 sequence (whole entry): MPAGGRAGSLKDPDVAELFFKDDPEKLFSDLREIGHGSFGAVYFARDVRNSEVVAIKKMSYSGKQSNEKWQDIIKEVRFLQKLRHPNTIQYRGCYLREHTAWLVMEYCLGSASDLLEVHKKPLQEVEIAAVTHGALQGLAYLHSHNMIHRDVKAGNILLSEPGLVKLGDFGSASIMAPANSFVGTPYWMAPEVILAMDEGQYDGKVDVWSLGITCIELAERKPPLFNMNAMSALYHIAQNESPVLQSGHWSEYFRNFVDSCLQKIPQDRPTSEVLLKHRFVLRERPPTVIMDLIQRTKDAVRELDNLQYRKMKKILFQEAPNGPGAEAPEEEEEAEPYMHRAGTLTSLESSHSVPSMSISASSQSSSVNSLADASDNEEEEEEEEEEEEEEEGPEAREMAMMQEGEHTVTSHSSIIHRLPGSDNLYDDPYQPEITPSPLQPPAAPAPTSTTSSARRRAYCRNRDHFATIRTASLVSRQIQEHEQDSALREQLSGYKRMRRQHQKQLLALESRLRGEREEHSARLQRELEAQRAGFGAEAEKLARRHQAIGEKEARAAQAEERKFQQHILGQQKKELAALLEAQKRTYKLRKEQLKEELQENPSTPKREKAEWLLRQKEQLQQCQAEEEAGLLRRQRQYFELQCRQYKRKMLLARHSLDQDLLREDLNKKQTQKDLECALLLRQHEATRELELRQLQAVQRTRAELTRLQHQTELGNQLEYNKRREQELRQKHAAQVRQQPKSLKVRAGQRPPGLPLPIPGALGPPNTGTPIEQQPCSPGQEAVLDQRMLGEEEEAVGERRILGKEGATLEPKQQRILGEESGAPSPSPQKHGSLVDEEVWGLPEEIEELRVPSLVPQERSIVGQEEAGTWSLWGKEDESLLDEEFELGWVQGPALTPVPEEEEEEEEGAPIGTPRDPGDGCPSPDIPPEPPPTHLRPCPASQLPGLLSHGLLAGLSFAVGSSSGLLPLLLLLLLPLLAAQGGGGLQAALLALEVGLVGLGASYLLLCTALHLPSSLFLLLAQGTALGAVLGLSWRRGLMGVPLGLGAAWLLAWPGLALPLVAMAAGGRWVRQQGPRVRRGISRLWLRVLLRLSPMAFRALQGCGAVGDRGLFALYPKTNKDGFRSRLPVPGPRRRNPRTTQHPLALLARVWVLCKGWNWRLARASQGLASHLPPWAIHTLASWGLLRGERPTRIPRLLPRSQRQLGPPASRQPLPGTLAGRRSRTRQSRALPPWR

With `Cc1cc(F)c(C(=O)Nc2cccc(-c3nncn3C(C)C)n2)cc1-n1cnc(C2CC2)c1` the % of control [1] was 100%.

Compound `Nc1cnc(N2CCc3cc(S(=O)(=O)Nc4c(F)cc(Cl)cc4F)cc(N4CCCC4=O)c32)nc1` [TP-020n] has a % of control [2] of 100%.

`Cn1cc(-n2cnc3c(NCc4nc5cc(Cl)c(Cl)cc5[nH]4)nc(N4CCOCC4)nc32)cn1` gave a % of inhibition [3] of 46.3% and a % of inhibition [4] of 46.7%.

`COc1cc(Nc2nc(C)cc(-c3cnn4nc(OC)ccc34)n2)cc(C(F)(F)F)c1` showed a % of control [5] of 98% and a % of control [6] of 100%.

For `CNC(=O)Nc1ccc(-c2nc(N3CC4CCC(C3)O4)c3cnn(C4CCC5(CC4)OCCO5)c3n2)cc1`, the % of inhibition [7] was 0%.

`O[C@H]1CC[C@H](Nc2ncc3nc(Nc4c(F)cc(F)cc4F)n([C@H]4CCOC4)c3n2)CC1` showed a % of control [8] of 93%.
